# Measurements published in ChEMBL document CHEMBL5096241, “Discovery of 3-Aminopyrazole Derivatives as New Potent and Orally Bioavailable AXL Inhibitors” (J Med Chem, 2022).
# Biological target: T1, Tyrosine-protein kinase receptor UFO (Homo sapiens, UniProt P30530)
# T1 sequence (P30530 whole entry): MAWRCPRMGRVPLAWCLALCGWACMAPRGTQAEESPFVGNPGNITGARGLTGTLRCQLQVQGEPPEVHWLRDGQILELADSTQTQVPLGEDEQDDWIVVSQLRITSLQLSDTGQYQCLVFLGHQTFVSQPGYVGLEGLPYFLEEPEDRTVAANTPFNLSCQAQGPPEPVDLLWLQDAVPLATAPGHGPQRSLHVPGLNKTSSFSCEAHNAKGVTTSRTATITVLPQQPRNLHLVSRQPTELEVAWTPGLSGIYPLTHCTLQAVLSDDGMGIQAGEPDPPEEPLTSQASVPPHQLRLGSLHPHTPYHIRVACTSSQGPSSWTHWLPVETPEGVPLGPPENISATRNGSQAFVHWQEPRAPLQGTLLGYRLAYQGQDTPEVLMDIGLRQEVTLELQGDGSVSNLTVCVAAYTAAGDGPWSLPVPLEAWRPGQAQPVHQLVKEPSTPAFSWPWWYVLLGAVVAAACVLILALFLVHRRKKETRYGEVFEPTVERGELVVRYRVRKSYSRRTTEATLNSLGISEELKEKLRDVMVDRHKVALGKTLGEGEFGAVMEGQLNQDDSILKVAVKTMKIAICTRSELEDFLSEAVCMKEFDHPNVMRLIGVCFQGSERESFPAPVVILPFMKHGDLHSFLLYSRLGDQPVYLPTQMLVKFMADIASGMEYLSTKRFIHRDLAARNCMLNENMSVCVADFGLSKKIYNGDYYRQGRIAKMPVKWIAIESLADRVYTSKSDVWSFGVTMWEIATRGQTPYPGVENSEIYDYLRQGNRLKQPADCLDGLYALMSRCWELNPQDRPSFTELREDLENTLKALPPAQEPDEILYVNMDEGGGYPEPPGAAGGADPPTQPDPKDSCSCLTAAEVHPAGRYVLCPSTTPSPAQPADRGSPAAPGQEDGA
# Experiment: Inhibition of recombinant AXL (unknown origin) using poly (Glu,Tyr) 4:1 as substrate incubated for 60 mins in presence of ATP by ELISA
# Conditions: not given
row,SMILES,IC50 [nM]
1,COc1cc2c(Oc3ccc(Nc4nn(C)cc4C(=O)NC4CCCCC4)cc3F)ccnc2cc1OCCCN1CCCCC1,5.6
2,COc1cc2c(Oc3ccc(Nc4nn(C)cc4C(=O)NC4CCCCC4)cc3F)ccnc2cc1OCCCN1CCN(C)CC1,2.9
3,COc1cc2nccc(Oc3ccc(Nc4nn(C)cc4C(=O)Nc4cccc(F)c4)cc3F)c2cc1OC,265
4,COc1cc2nccc(Oc3ccc(Nc4nn(C)cc4C(=O)NC4CCCCC4)cc3C)c2cc1OC,40.4
5,COc1cc2nccc(Oc3ccc(Nc4nn(C)cc4C(=O)NC4CCC(F)(F)CC4)cc3F)c2cc1OC,65.1
6,COc1cc2nccc(Oc3ccc(Nc4nn(C)cc4C(=O)NC4CCCCCCC4)cc3F)c2cc1OC,12.5
7,COc1cc2nccc(Oc3ccc(Nc4nn(C)cc4C(=O)NC4CCCCC4)cc3)c2cc1OC,35
8,COc1cc2c(Oc3ccc(Nc4nn(C)cc4C(=O)NC4CCCCC4)cc3F)ccnc2cc1OCCCN(C)C,3.2
9,COc1cc2nccc(Oc3ccc(Nc4nn(C)cc4C(=O)NC4C5CC6CC(C5)CC4C6)cc3F)c2cc1OC (stereo not given),13.2
10,COCCCOc1cc2nccc(Oc3ccc(Nc4nn(C)cc4C(=O)NC4CCCCC4)cc3F)c2cc1OC,8.6
11,COCCOc1cc2nccc(Oc3ccc(Nc4nn(C)cc4C(=O)NC4CCCCC4)cc3F)c2cc1OC,7.8
12,COc1cc2nccc(Oc3ccc(Nc4nn(C)cc4C(=O)Nc4ccc(C(C)C)cc4)cc3F)c2cc1OC,> 1000
13,COc1ccc(NC(=O)c2cn(C)nc2Nc2ccc(Oc3ccnc4cc(OC)c(OC)cc34)c(F)c2)cc1,86.7
14,COc1cc2nccc(Oc3ccc(Nc4nn(C)cc4C(=O)N4CCCCC4)cc3F)c2cc1OC,> 1000
15,COc1cc2nccc(Oc3ccc(Nc4nn(C)cc4C(=O)NC4CCCCC4)cc3OC)c2cc1OC,40.4
16,COc1cc2nccc(Oc3ccc(Nc4nn(C)cc4C(=O)Nc4ccc(OC(F)(F)F)cc4)cc3F)c2cc1OC,> 1000
17,COc1cc2nccc(Oc3ccc(Nc4nn(C)cc4C(=O)Nc4ccc(OC(F)F)cc4)cc3F)c2cc1OC,64.4

# Now from value to compound:
row,IC50 [nM],SMILES
1,120,COc1cc2nccc(Oc3ccc(Nc4nn(C)cc4C(=O)NC4CCOCC4)cc3F)c2cc1OC
2,27.4,COc1cc2nccc(Oc3ccc(Nc4nn(C)cc4C(=O)NC4CCCC4)cc3F)c2cc1OC
3,40.1,COc1cc2nccc(Oc3ccc(Nc4nn(C)cc4C(=O)Nc4ccc(F)cc4)cc3F)c2cc1OC
4,11.4,COc1cc2nccc(Oc3ccc(Nc4nn(C)cc4C(=O)NC4CCCCC4)cc3F)c2cc1OC
5,25.4,COc1cc2nccc(Oc3ccc(Nc4nn(C)cc4C(=O)Nc4ccccc4)cc3F)c2cc1OC
6,142,COc1cc2nccc(Oc3ccc(Nc4nn(C)cc4C(=O)NC(C)(C)C)cc3F)c2cc1OC
7,238,CCNC(=O)c1cn(C)nc1Nc1ccc(Oc2ccnc3cc(OC)c(OC)cc23)c(F)c1
8,> 1000,CNC(=O)c1cn(C)nc1Nc1ccc(Oc2ccnc3cc(OC)c(OC)cc23)c(F)c1
9,23.1,COc1cc2nccc(Oc3ccc(Nc4nn(C)cc4C(=O)Nc4ccc(C)cc4)cc3F)c2cc1OC
10,586,COc1cc2nccc(Oc3ccc(Nc4nn(C)cc4C(=O)NC4CC4)cc3F)c2cc1OC

# Test system: BaF3
# Experiment: Antiproliferative activity against mouse BaF3 cells transfected with TEL-AXL assessed as inhibition of cell growth incubated for 72 hrs
# Type: functional, cell-based
# Conditions: BaF3, 72 h
row,IC50 [nM],SMILES
1,9,COc1cc2c(Oc3ccc(Nc4nn(C)cc4C(=O)NC4CCCCC4)cc3F)ccnc2cc1OCCCN1CCN(C)CC1
2,11.6,COc1cc2c(Oc3ccc(Nc4nn(C)cc4C(=O)NC4CCCCC4)cc3F)ccnc2cc1OCCCN(C)C
3,98.8,"Nc1nc(Nc2ccc3c(c2)CCC(N2CCCC2)CC3)nn1-c1cc2c(nn1)-c1ccccc1CCC2 (single isomer, unassigned) [BEMCENTINIB]"
